Assay results reported in ChEMBL document CHEMBL2346629, “Discovery and characterization of novel allosteric FAK inhibitors” (Eur J Med Chem, 2013).

Target: Muscle, skeletal receptor tyrosine-protein kinase (Homo sapiens) (UniProt O15146)
Experiment: Inhibition of MUSK (unknown origin) using [gamma-33P]ATP assessed as residual activity at 3 uM

Muscle, skeletal receptor tyrosine-protein kinase (Homo sapiens), sequence (O15146 whole entry): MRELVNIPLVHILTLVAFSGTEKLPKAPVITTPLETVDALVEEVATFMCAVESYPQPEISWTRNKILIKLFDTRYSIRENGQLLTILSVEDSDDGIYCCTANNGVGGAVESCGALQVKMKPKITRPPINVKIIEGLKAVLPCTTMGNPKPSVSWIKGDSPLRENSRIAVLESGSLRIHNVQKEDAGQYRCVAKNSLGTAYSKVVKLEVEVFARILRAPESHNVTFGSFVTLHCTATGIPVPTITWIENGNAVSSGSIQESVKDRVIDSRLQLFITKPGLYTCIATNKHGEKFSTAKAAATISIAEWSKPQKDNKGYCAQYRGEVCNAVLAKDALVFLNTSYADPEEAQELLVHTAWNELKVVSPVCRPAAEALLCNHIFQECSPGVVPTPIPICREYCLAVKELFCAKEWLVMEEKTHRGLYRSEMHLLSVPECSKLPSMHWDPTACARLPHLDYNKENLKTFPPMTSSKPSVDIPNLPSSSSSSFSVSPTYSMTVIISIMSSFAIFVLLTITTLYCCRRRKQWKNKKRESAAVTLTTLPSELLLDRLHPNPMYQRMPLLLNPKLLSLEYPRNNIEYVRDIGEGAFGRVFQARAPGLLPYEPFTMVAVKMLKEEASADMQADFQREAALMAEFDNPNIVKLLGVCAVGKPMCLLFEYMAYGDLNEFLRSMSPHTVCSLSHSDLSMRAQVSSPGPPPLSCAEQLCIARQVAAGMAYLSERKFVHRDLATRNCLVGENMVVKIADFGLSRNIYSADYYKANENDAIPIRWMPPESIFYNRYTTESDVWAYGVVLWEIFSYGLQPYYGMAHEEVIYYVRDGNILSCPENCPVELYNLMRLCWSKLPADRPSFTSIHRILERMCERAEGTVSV

- Activity: 68%
Structure (SMILES): CCc1ccc(-c2ccc3c(c2)-c2[nH]ncc2S(=O)(=O)N3C)cc1
